This is an account of results in patent US10968186B2, “Ascochlorin derivative and use thereof as AMPK activator” (priority 2016, dated 2021).

The test system of one series is A549. Description: Anti-proliferative activity, CellTiterGlo assay, A549. As to conditions: Homo sapiens; A549, 96 hrs incubation; read-out: Antiproliferative activities IC50, A549. The series is classed as cell-based. The procedure: (§1) The anti-proliferative activities of the compounds against 6 human cancer cell lines were determined by CellTiterGlo assay kit. All cells were obtained from ATCC and cultured as recommended by the vendor. Cells were assayed in exponential growth phase. Sample solution was prepared by 3-fold serial dilution from 30 mM stock for 10 doses in DMSO. Antiproliferative activities were measured by CellTiterGlo assay kit according to the protocol after cells were incubated for 96 hrs in a 37° C., 5% CO2 incubator.
(§2) On the 4th day of incubation, i) 15 μl reagent (CelltiterGlo assay kit) was added per well and plate was shaken (avoiding light) for 2 mins on a plate shaker, ii) the plate was kept (avoiding light) in room temperature for 30 min, and iii) the luminescence value was recorded by Multiplate reader.

In series [1] the test system is Hep3B human liver cancer xenograft. Description: Antitumor activity in Hep3B human liver cancer xenograft model. It counts as in vivo, BALB/c nude mice. As to conditions: po 200 mg/kg once daily 5 days then 100 mg/kg 10 days; alone or in combination of sorafenib (80 mg/kg). The procedure: Antitumor Activity of Compound 5 (po, qd×14) in Hep3B Human Liver Cancer Xenograft Model in BALB/c Nude Mice: Single Agent and Combination With Sorafenib
Each mouse was inoculated subcutaneously on the right flank with Hep3B tumor cells (5×106) in 0.1 ml of MEM-Matrigel mixture (1:1 ratio) for tumor development. The treatment started when the mean tumor size reached approximately 137 mm^3. Mice were then randomized into groups.
Compound 5 was dissolved in the vehicle (95% v/v PEG400+5% Tween 80) and orally administered to the tumor-bearing mice with 200 mg/kg, once daily for the first 5 days, followed by treatment with 100 mg/kg for 10 days.

A further series relates to BxPC-3. The series is described as follows: Anti-proliferative activity, CellTiterGlo assay, BxPC-3. It counts as cell-based. The following applies: Homo sapiens; BxPC-3, 96 hrs incubation; read-out: Antiproliferative activities IC50, BxPC-3. The method, then:
as §1, §2

For the next series, the system named is LNCaP. Description: Anti-proliferative activity, CellTiterGlo assay, LNCaP. The series is classed as cell-based. As to conditions: Homo sapiens, 96 hrs incubation, read-out: Antiproliferative activities IC50, LNCaP. The procedure: as §1, §2
In general terms: Cellular ATP, detected with luciferase, serves as a proxy for viable cell number.

Series [2] in a line: Stability against mouse liver microsomes. The series is classed as in vitro ADME. The following applies: mouse LM, 2 μM compound, 60 min, NADPH. The method, then:
(§3) Determination of Stability Against Mouse and Human Mirosomes
(§4) Pooled human liver microsomes (Cat. 452161; Lot. 23418) were purchased from Corning and pooled male mouse liver microsomes (Cat. M1000; Lot. 1210302) were purchased from Xenotech. Microsomes were stored at −80° C. prior to use. 40 μL of ultra-pure H2O was used instead of NADPH solution in the negative control. The negative control was used to exclude the misleading factor that was resulted from instability of chemical itself. Samples with NADPH were prepared in duplicate. Negative controls were prepared in singlet.
(§5) The reaction was started with the addition of 4 μL of 200 μM compound solution to each master solution to get the final concentration of 2 μM. Verapamil was used as positive control in the assay. Aliquots of 50 μL were taken from the reaction solution at 0, 15, 30, 45 and 60 min. The reaction was stopped by addition of 4 volumes of cold acetonitrile with IS (200 nM imipramine, 200 nM labetalol and 2 μM ketoprofen). Samples were centrifuged at 3,220 g for 40 minutes. Aliquot of […] of the supernatant was mixed with 90 μL of ultra-pure H2O and then was used for LC-MS/MS analysis. Results are shown in Table 3 by indicating remaining % of the test compound after 60 minutes incubation with liver microsomes from human and mouse in the presence of NADPH.

The test system of another series is U87-MG. Description: Anti-proliferative activity, CellTiterGlo assay, U87-MG. The series is classed as cell-based. As to conditions: Homo sapiens, U-87 MG, 96 hrs incubation, read-out: Antiproliferative activities IC50, U87-MG. The method, then: as §1, §2
A further series has as its system HT29. Description: Anti-proliferative activity, CellTiterGlo assay, HT29. It counts as cell-based. The following applies: Homo sapiens, HT-29; HT29, 96 hrs incubation; read-out: Antiproliferative activities IC50, HT29. The method, then: as §1, §2
The nature of series [3]: Stability against human liver microsomes. The series is classed as in vitro ADME. The following applies: 2 μM compound. The method, then: as §3, §4, §5
The test system of a further series is MDA-MB-231. Description: Anti-proliferative activity, CellTiterGlo assay, MDA-MB-231. The series is classed as cell-based. The following applies: Homo sapiens; MDA-MB-231, 96 hrs incubation; read-out: Antiproliferative activities IC50, MDA-MB-231. The method, then: as §1, §2
The nature of series [4]: Solubility in pH4.0 and pH7.4 phosphate buffer solution. It counts as physicochemical. As to conditions: 2 hr incubation, 25° C. The method, then:
1) Preparation of Stock Solutions
Diclofenac was used as positive control in the assay.
2) Procedures for Solubility Determination
This study was performed in duplicate. […] The filtered samples were diluted with methanol.
3) Samples Analyzed by LC-MS/MS

Series [5] concerns HFD-STZ C57BL/6J mice model. Description: In vivo efficacy in HFD-STZ C57BL/6J mice model. The procedure: In Vivo Efficacy in HFD-STZ C57BL/6J Mice Model
Diet induced obesity model establishment:
C57BL/6J mice were fed with high fat diet (Research Diets, D12492) for 64 days, and streptozotocin (10 mg/kg) was given orally on day 22 and day 29. Compound treatment was done from day 36 to day 63.
Based on the animal's body weight and oral glucose tolerance test (OGTT) on week 5, mice were randomly assigned to respective groups using a computer-generated randomization procedure.
Blood glucose level was measured with the blood from tail vein every 2nd week by using Accu-Chek Aviva System.
Blood Chemistry Analysis:
Blood samples were obtained from collection on Day 49 and 65, the samples were immediately processed by centrifugation at 4° C., 4,000 g for 15 minutes, and then they were transferred into a new test tube. Lipid profile and full panel blood bio-chemistry parameters were measured by using TOSHIBA TBA-40FR automated biochemical analyzer.

Series [6] in a line: Stability in acidic pH phosphate buffer solution (hydrolysis to MAC). It counts as physicochemical. As to conditions: room temperature. From the text: Therefore, the Schiff base derivatives of MAC have the same problem in the metabolic stability as the parent compound, MAC.
Where [7] appears, read: OGTT assay, versus group treated with vehicle.
The mark [8] stands for this setting: once a day oral treatment for 28 days at 0.25 to 16 mg/kg.

SMILES strings stand for the structures. Converted amounts (≈) assume the structure as drawn. Where two headings read alike, the source gives them in different places.

Take `COc1c(Cl)c(C)c(C=O)c(O)c1C/C=C(C)/C=C/[C@@]1(C)[C@H](C)CC[C@](C)(O)[C@@H]1C` [Compound 1, 3-chloro-6-hydroxy-5-[(2E,4E)-5-[(1R,2R,3S,6R)-3-hydroxy-1,2,3,6-tetramethylcyclohexyl]-3-methylpenta-2,4-dien-1-yl]-4-methoxy-2-methylbenzaldehyde]: the melting point (in general, the temperature of the solid-liquid transition) fell in the range of 42 to 43 °C.

On to `COc1c(Cl)c(C)c(C=O)c(O)c1C/C=C(C)/C=C/[C@@]1(C)[C@H](C)CC/C(=N\O)[C@@H]1C` [Compound 2, 3-chloro-6-hydroxy-5-[(2E,4E)-5-[(1R,2R,3E,6R)-3-(hydroxyimino)-1,2,6-trimethylcyclohexyl]-3-methylpenta-2,4-dien-1-yl]-4-methoxy-2-methylbenzaldehyde], for which the melting point fell in the range of 158 to 160 °C.

Take `CC(/C=C/[C@@]1(C)[C@H](C)CC/C(=N\O)[C@@H]1C)=C\Cc1c(O)c(C=O)c(C)c(Cl)c1OCF` [Compound 5, 3-chloro-4-(fluoromethoxy)-6-hydroxy-5-[(2E,4E)-5-[(1R,2R,3E,6R)-3-(hydroxyimino)-1,2,6-trimethylcyclohexyl]-3-methylpenta-2,4-dien-1-yl]-2-methylbenzaldehyde]: the IC50 (commonly the midpoint of a concentration-inhibition curve) with A549 stood at 2.7 µM; in the series with BxPC-3, 3.2 µM; in the series on LNCaP, 1.8 µM; with U87-MG, 5.5 µM; in the series with HT29 it was 2.8 µM; in the series on MDA-MB-231, 2.6 µM. Besides, the “effect to reduce the proliferation of the liver cancer cells (tumor size)” value in series [1] was “significant effect”. Besides, the “Liver microsome stability remaining % after 60 min incubation with NADPH, mouse LM” value in [2] stood at 88%. For the same molecule, the “Liver microsome stability remaining % after 60 min incubation with NADPH, human LM” value in series [3] came out at 86%.

Regarding `CO/N=C/c1c(C)c(Cl)c(OC)c(C/C=C(C)/C=C/[C@@]2(C)[C@H](C)CC/C(=N\OCC(=O)O)[C@@H]2C)c1O` [Compound 19, 2-([[(1E,2R,3R,4R)-3-[(1E,3E)-5-[3-chloro-6-hydroxy-2-methoxy-5-[(1E)-(methoxyimino)methyl]-4-methylphenyl]-3-methylpenta-1,3-dien-1-yl]-2,3,4-trimethylcyclohexylidene]amino]oxy)acetic Acid], the half-inhibitory concentration (IC50) in the series on A549 was 22.3 µM; with BxPC-3 it was 17 µM; in the series on LNCaP it was 14.6 µM; with U87-MG, 20.4 µM; with HT29, 22.5 µM; in the series with MDA-MB-231, 47.4 µM. In addition, the “Liver microsome stability remaining % after 60 min incubation with NADPH, mouse LM” value in [2] was found to be 89%. Besides, the solubility – broadly, the concentration that dissolves in the medium under given conditions – at 2 h in [4] (phosphate buffer (PBS), aqueous buffer, kinetic from dmso stock, pH 4.0 phosphate buffer solution, read-out: Solubility, pH 4.0 PBS) was determined as 148 µM (≈ 77.1 µg/mL); in [4] (phosphate buffer (PBS), aqueous buffer, kinetic from dmso stock, pH 7.4 phosphate buffer solution, read-out: Solubility, pH 7.4 PBS), 23.7 µM (≈ 12.3 µg/mL). Further, the “Liver microsome stability remaining % after 60 min incubation with NADPH, human LM” value in series [3] is reported as 94%. In addition, in [5] (setting [7]), the “OGTT: blood glucose level after 2 hours of glucose administration, lower than control group” value was 30%. Further, the “OGTT: glucose AUC lower than control group” value in [5] (setting [7]) was 25%. Also, in [5] (setting [8]), the “decrease of HbA1C level” value is reported as −31%. For the same molecule, the “decrease of blood glucose level” value in series [5] (setting [8]) is reported as −68%.

In the case of `COc1c(Cl)c(C)c(C=NCC(N)=O)c(O)c1C/C=C(C)/C=C/[C@@]1(C)[C@H](C)CCC(=O)[C@@H]1C` [compound #13 in WO2004/074236, reference compound], the “hydrolysis to MAC at pH 4.0 phosphate buffer solution” value in series [6] is “almost instantly hydrolyzed to MAC”. In [4] (pH 4.0 phosphate buffer solution), the “Solubility, pH 4.0 PBS” value is recorded as “converted to MAC”. In addition, the solubility at 2 h in [4] (pH 7.4 phosphate buffer solution, read-out: Solubility, pH 7.4 PBS) came to 0.02 µM (≈ 0.0095 µg/mL).
